ChEMBL document CHEMBL4483862, “Open-source discovery of chemical leads for next-generation chemoprotective antimalarials” (2018)

System: Plasmodium berghei
Assay: Luciferase/luciferin-expressing antifolate-resistant parasites were used to infect a culture of HepG2 cells that were pre-incubated with compounds. Infected hepatocytes emit light due to the luciferase reaction. Assay results are presented as the percent inhibition of light emission compared to control. […]
Assay type: functional
Settings: sporozoite; for IC90: read-out: LUCIFERASE INFECTION ASSAY - IC90
[1] = read-out: LUCIFERASE INFECTION ASSAY - IC50

| Compound | IC50 [1] [µM] | IC90 [µM] | other results |
| --- | --- | --- | --- |
| CN(C)c1ccc(C(c2cc(C(C)(C)C)c(O)c(C(C)(C)C)c2)N2CCCCC2)cc1 (stereo not given) | > 10 | > 10 | – |
| COc1cc(Br)cc(/C=N/NC(=S)NC(C)(C)C)c1O | – | 6.76 | IC50 (PBLUC_HILL_SLOPE 63.8, PBLUC_R_SQUARED 0.286, read-out: LUCIFERASE INFECTION ASSAY - IC50): 6.53 µM |
| Cn1c(=O)c2cc3cc(Cl)ccc3nc2c2c(=O)n(-c3ccccc3)c(=O)n(-c3ccccc3)c21 | – | > 6.86 | IC50 (HEPG2TOX_HILL_SLOPE 9.44, HEPG2TOX_R_SQUARED 0.957, PBLUC_HILL_SLOPE 32.7, PBLUC_R_SQUARED 0.0582, read-out: LUCIFERASE INFECTION ASSAY - IC50): 6.86 µM |
| CCn1c(=O)c(=O)[nH]c2cc(C(=O)Nc3cccc(C#Cc4cccs4)c3)ccc21 | > 10 | > 10 | – |
| CC(C)Oc1cccc(-c2cn3c(-c4ccc(N(C)C)cc4)cnc3cn2)c1 | – | > 8.86 | IC50 (PBLUC_HILL_SLOPE 15, PBLUC_R_SQUARED 0.312, read-out: LUCIFERASE INFECTION ASSAY - IC50): > 8.86 µM |
| FC(F)(F)c1csc(Nc2ccc(Cl)c(Cl)c2)n1 | 10.4 | > 10.5 | – |
| Cc1ccc(C)c(-n2nnnc2SCC(=O)Nc2nc(-c3ccccn3)cs2)c1 | – | > 10 | IC50 (PBLUC_HILL_SLOPE 1.88, PBLUC_R_SQUARED 0.631, read-out: LUCIFERASE INFECTION ASSAY - IC50): 5.63 µM |
| OC1CCC(Nc2nn3c(-c4ccc5ccccc5c4)cnc3s2)CC1 (stereo not given) | > 9.05 | > 9.05 | – |
| NS(=O)(=O)c1ccc(CCNC(=O)COC(=O)c2ccc3[nH]c4c(c3c2)CCCC4)cc1 | > 10 | > 10 | – |
| COc1ccc(CCC(=O)N(c2nc(-c3ccc(C)cc3)cs2)c2cc(C)ccc2C)cc1OC | – | 4.21 | IC50 (HEPG2TOX_HILL_SLOPE 2.48, HEPG2TOX_R_SQUARED 0.955, PBLUC_HILL_SLOPE 14.1, PBLUC_R_SQUARED 0.228, read-out: LUCIFERASE INFECTION ASSAY - IC50): 3.6 µM |
| CC(C)c1ccc(NC(=O)CSc2ncc3c(n2)CC(C)(C)CC3=O)cc1 | > 8.6 | > 8.6 | – |
| FC(F)(F)Oc1ccc(-c2cnc3ccc(NCc4ccncc4)nn23)cc1 | – | 1.17 | IC50 (HEPG2TOX_HILL_SLOPE 0.34, HEPG2TOX_R_SQUARED 0.62, PBLUC_HILL_SLOPE 3.72, PBLUC_R_SQUARED 0.739, read-out: LUCIFERASE INFECTION ASSAY - IC50): 0.649 µM |
| Cc1c(Cl)cccc1N=C(NS(=O)(=O)c1cccs1)c1ccccc1 | > 10 | > 10 | – |
| Cc1ccc(Cn2nc(C)c(C(=O)Nc3nc4c(s3)CCCC4)c2Cl)cc1 | – | > 10 | IC50 (PBLUC_HILL_SLOPE 15.7, PBLUC_R_SQUARED 0.159, read-out: LUCIFERASE INFECTION ASSAY - IC50): 9.13 µM |
| CCC(=O)NC1=C(Nc2ccc(SC(F)F)cc2)C(=O)c2ccccc2C1=O | – | 4.5 | IC50 (HEPG2TOX_HILL_SLOPE 7.23, HEPG2TOX_R_SQUARED 0.37, PBLUC_HILL_SLOPE 1.96, PBLUC_R_SQUARED 0.792, read-out: LUCIFERASE INFECTION ASSAY - IC50): 1.47 µM |
| CS(=O)(=O)c1ccc(C(=O)Nc2ccc(S(=O)(=O)NCc3ccco3)cc2)cc1[N+](=O)[O-] | – | > 10 | IC50 (HEPG2TOX_HILL_SLOPE 11.7, HEPG2TOX_R_SQUARED 0.595, read-out: LUCIFERASE INFECTION ASSAY - IC50): > 10 µM |
| COc1ccc(-c2nc3cnc(Nc4cccc(OC(F)(F)F)c4)cc3n2C)cc1OC | – | > 10 | IC50 (PBLUC_HILL_SLOPE 2.08, PBLUC_R_SQUARED 0.244, read-out: LUCIFERASE INFECTION ASSAY - IC50): > 10 µM |
| COC(=O)c1ccc2c(=O)n(-c3ccccc3)c(SC3CCCCC3=O)nc2c1 (stereo not given) | > 10 | > 10 | – |
| CC(OC(=O)c1ccccc1O)C(N)=O (stereo not given) | > 10 | > 10 | – |
| O=C(c1ccco1)N1CCN(c2nc(-c3ccsc3)nc3ccccc23)CC1 | – | > 10 | IC50 (PBLUC_HILL_SLOPE 3.55, PBLUC_R_SQUARED 0.0384, read-out: LUCIFERASE INFECTION ASSAY - IC50): 7.3 µM |

| Compound | IC50 [1] [µM] | IC90 [µM] | other results |
| --- | --- | --- | --- |
| C=C1S/C(=N\c2ccccc2OC)N(C(=O)c2c(-c3ccccc3Cl)noc2C)C12CCCCC2 | – | > 6.5 | IC50 (FFLUC_HILL_SLOPE 28.3, FFLUC_R_SQUARED 0.328, HEPG2TOX_HILL_SLOPE 0.898, HEPG2TOX_R_SQUARED 0.613, PBLUC_HILL_SLOPE 1.13, PBLUC_R_SQUARED 0.144, read-out: LUCIFERASE INFECTION ASSAY - IC50): 3.72 µM |
| CCOc1cc(/C=C/c2nc3cc(C)c(C)cc3s2)ccc1O | – | > 10 | IC50 (HEPG2TOX_HILL_SLOPE 6.63, HEPG2TOX_R_SQUARED 0.787, PBLUC_HILL_SLOPE 3.12, PBLUC_R_SQUARED 0.499, read-out: LUCIFERASE INFECTION ASSAY - IC50): 6.52 µM |
| COc1cc(OC)c(OC)cc1CNC(=O)c1ccc2[nH]c3c(c2c1)CCCC3 | – | > 10 | IC50 (PBLUC_HILL_SLOPE 2.72, PBLUC_R_SQUARED 0.276, read-out: LUCIFERASE INFECTION ASSAY - IC50): 9.2 µM |
| Cc1cccc(C(=O)Nc2ccc(N3CCc4sccc4C3)nc2)c1[N+](=O)[O-] | – | > 10 | IC50 (HEPG2TOX_HILL_SLOPE 2.87, HEPG2TOX_R_SQUARED 0.919, PBLUC_HILL_SLOPE 1.54, PBLUC_R_SQUARED 0.645, read-out: LUCIFERASE INFECTION ASSAY - IC50): 2.52 µM |
| CN(C)c1nc(N)nc(CN(Cc2nc(N)nc(N(C)C)n2)C23CC4CC(CC(C4)C2)C3)n1 | – | 0.149 | IC50 (HEPG2TOX_HILL_SLOPE 0.693, HEPG2TOX_R_SQUARED 0.937, PBLUC_HILL_SLOPE 2.94, PBLUC_R_SQUARED 0.84, read-out: LUCIFERASE INFECTION ASSAY - IC50): 0.0707 µM |
| CCOc1cc(N2CCOCC2)c(OCC)cc1NC(=O)c1n[nH]c(=O)c2ccccc12 | > 10 | > 10 | – |
| O=C(c1ccccc1)C(Sc1nnc(Cc2cccs2)n1CCc1ccccc1)c1ccccc1 (stereo not given) | > 10 | > 10 | – |
| Cn1c(CSc2nc3ccccc3s2)nn(CN2CCCc3ncccc32)c1=S | > 10 | > 10 | – |
| Fc1cccc(-n2ccnc2SCc2nc3ccccc3s2)c1 | – | > 10 | IC50 (PBLUC_HILL_SLOPE 1.97, PBLUC_R_SQUARED 0.394, read-out: LUCIFERASE INFECTION ASSAY - IC50): 6.86 µM |
| Cc1ccc(NC(=S)Nc2cccc(C(F)(F)F)c2)c(C)c1 | – | > 10.2 | IC50 (PBLUC_HILL_SLOPE 13, PBLUC_R_SQUARED 0.213, read-out: LUCIFERASE INFECTION ASSAY - IC50): 9.86 µM |
| CC(C)(C)C(=O)CSc1nnc(-c2ccccc2F)[nH]1 | > 10 | > 10 | – |
| CC(C)(CNC(=O)c1ccc(F)cc1)SCc1ccc(F)cc1 | – | > 9.84 | IC50 (HEPG2TOX_HILL_SLOPE 0.147, HEPG2TOX_R_SQUARED 0.538, PBLUC_HILL_SLOPE 1.03, PBLUC_R_SQUARED 0.662, read-out: LUCIFERASE INFECTION ASSAY - IC50): 3.54 µM |
| O=S(=O)(c1ccc(-c2cc(-c3ccccc3Cl)c3cc(Cl)ccc3n2)cc1)N1CCCCC1 | – | > 10 | IC50 (FFLUC_HILL_SLOPE 79.3, FFLUC_R_SQUARED 0.555, read-out: LUCIFERASE INFECTION ASSAY - IC50): > 10 µM |
| CC(NC(=O)C12CC3CC(CC(C3)C1)C2)C(=O)N/N=C/C1=C(N2CCOCC2)C(=C\c2ccccc2)/CC1 (stereo not given) | – | > 10 | IC50 (FFLUC_HILL_SLOPE 17.7, FFLUC_R_SQUARED 0.505, PBLUC_HILL_SLOPE 17.3, PBLUC_R_SQUARED 0.294, read-out: LUCIFERASE INFECTION ASSAY - IC50): 9.09 µM |
| CCN(CC)S(=O)(=O)c1cccc(NC(=O)C23CC4CC(C2)CC(c2ccc(C)cc2)(C4)C3)c1 | > 10 | > 10 | – |
| CN(C)c1cccc(-c2cnc3sc(NCc4ccc(F)cc4)nn23)c1 | – | > 8.98 | IC50 (FFLUC_HILL_SLOPE 4.01, FFLUC_R_SQUARED 0.615, PBLUC_HILL_SLOPE 7.46, PBLUC_R_SQUARED 0.677, read-out: LUCIFERASE INFECTION ASSAY - IC50): 7.83 µM |
| Cc1nc(=O)c2c([nH]1)NC(=O)CC2c1ccccc1C (stereo not given) | > 12.3 | > 12.3 | – |
| c1csc(-c2cnc3sc(NCc4ccncc4)nn23)c1 | > 10.5 | > 10.5 | – |
| O=C(Nc1ccc(N2CCN(c3ncccc3C(F)(F)F)CC2)nc1)c1cccs1 | – | 0.867 | IC50 (PBLUC_HILL_SLOPE 2.12, PBLUC_R_SQUARED 0.656, read-out: LUCIFERASE INFECTION ASSAY - IC50): 0.307 µM |
| CC1(c2ccc(F)cc2)NC(=O)N(Cc2csc(-c3ccc(F)cc3)n2)C1=O (stereo not given) | – | > 10 | IC50 (PBLUC_HILL_SLOPE 12.9, PBLUC_R_SQUARED 0.121, read-out: LUCIFERASE INFECTION ASSAY - IC50): 9.44 µM |
